Data reported in US8552175B2, “Sulfur transfer reagents for oligonucleotide synthesis” (A.M. Chemicals, Inc., priority 2009, dated 2013).

What was measured:
[1] = test system: solid support-bound internucleosidic phosphite triesters; test: Sulfur transfer in solid phase synthesis of oligonucleotide phosphorothioates, HPLC and ES MS; conditions: for contact time required for complete sulfur transfer: optimized conditions

Row | melting point [°C] | Compound | contact time required for complete sulfur transfer ([1]; 0.02 M solution of reagent) [min] | contact time required for complete sulfur transfer ([1]; 0.05 M solution of reagent) [min] | contact time required for complete sulfur transfer ([1]; 0.1 M solution of reagent) [min] | performance in oligonucleotide synthesis compared with compound 1 ([1]; in words)
1 | 73 to 75 | S=c1ncss1 [Compound 6, 3H-1,2,4-dithiazol-3-thione] | – | – | – | –
2 | – | 5-Phenyl-3H-1,2,4-dithiazol-3-thione [Compound 7] | 2 | 1 | 0.5 | substantially similar performance
